# Measurements: patent US20210330611A1, “THERAPY FOR NEUROLOGICAL DISEASES/DISORDERS” (priority 2020, published 2021)
# Values joined by “and” are separate entries in the source; they are usually repeats but may differ in a detail not shown here. Equal values may be shown once. Where a name gives a salt, the structure may show the parent alone. Read-outs that look alike come from different tables or passages of the source.
# Columns and labels:
# [1] = system: fibrin- and LPS-induced microglia activation; assay: cells; format: cell-based, rat; conditions: for inhibition at 10 µM: Rattus norvegicus
# in vitro [2] = conditions: rat
# primary rat microglia [3] = assay: Cell toxicity (dead cells, size <150 μm2) in coated fibrin (cFib) assay; conditions: primary microglia HTS, fibrin stimulation; decreased size (<150 μm^2) as marker of toxicity;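 for Fibrin % cell toxicity: share of dead cells sized under 150 µm2 at 10 µM in fibrin-stimulated microglia HTS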
# [4] = system: fibrin-induced microglia activation; assay: Image-based assay of fibrin-induced microglia activation (HTS and dose response); format: cell-based, rat; conditions: for IC50 / inhibition at 10 µM: Rattus norvegicus, Microglia; for inhibition at 10 µM: primary microglia HTS, fibrin stimulation, increased cell size (>800 μm^2) as marker of activation, read-out: Fibrin % inhibition
# primary rat microglia [5] = assay: Cell toxicity (dead cells, size <150 μm2) in LPS assay; conditions: for LPS % cell toxicity: primary microglia HTS, LPS stimulation, decreased size (<150 μm^2) as marker of toxicity; for IC50: read-out: Cell Toxicity IC50 (uM) [LPS assay], LPS assay
# in vitro [6] = conditions: rat, Cell Toxicity IC50 (uM) [cFib assay]
# [7] = system: LPS-induced microglia activation; assay: Image-based assay of LPS-induced microglia activation (HTS and dose response); format: cell-based, rat; conditions: Rattus norvegicus, Microglia; for inhibition at 10 µM: primary microglia HTS, LPS stimulation, increased cell size (>800 μm^2) as marker of activation, read-out: LPS % inhibition
# [8] = HTS of 1907 compounds, quadrant by fibrin and LPS inhibition
# [9] = Microglia, Table 3, read-out: Cherry-picked Hit (Suppl. Table 7)
# [10] = Microglia, HTS hit classification, read-out: Hit
# [11] = quadrant by fibrin and LPS inhibition in HTS of 1907 compounds
# [12] = 48 h, Table 1, dose response 0.001-20 μM, triplicates, primary rat microglia, 48 h, read-out: Fibrin IC50
# [13] = Table 3, read-out: Fibrin IC50 (uM) (Suppl. Table 7)
# [14] = dose response, fibrin-induced microglia activation, read-out: Fibrin IC50
# [15] = fibrin-induced microglia activation, dose response, read-out: Fibrin IC50 (uM) (Suppl. Table 7)
# [16] = 48 h, Table 1, dose response 0.001-20 μM, triplicates, primary rat microglia, 48 h, read-out: LPS IC50
# [17] = LPS-induced microglia activation, dose response, read-out: LPS IC50 (uM) (Suppl. Table 7)
# [18] = Table 3, read-out: LPS IC50 (uM) (Suppl. Table 7)
# [19] = dose response, LPS-induced microglia activation, read-out: LPS IC50
# [20] = hit classification in microglia HTS, read-out: Cherry-picked Hit (Suppl. Table 7)
# [21] = Table 6, read-out: Fibrin IC50 (uM) (Suppl. Table 7)
# [22] = listed as Medroxyprogesterone Ac
# [23] = Table 6, read-out: LPS IC50 (uM) (Suppl. Table 7)
SMILES,"Quadrant (FIG. 5b) [1, 8]","inhibition at 10 µM [1, 9]","inhibition at 10 µM [1, 10]","Quadrant (FIG. 5b) ([1]; Table 1, screen at 10 μM)","Quadrant (FIG. 5b) ([1]; Table 3, screen at 10 μM)","Quadrant (FIG. 5b) [1, 11]",IC50 (in vitro [2]),Fibrin % cell toxicity (primary rat microglia [3]),"IC50 [4, 12]","IC50 [4, 13]","IC50 [4, 14]","IC50 [4, 15]",inhibition at 10 µM [4],LPS % cell toxicity (primary rat microglia [5]),IC50 (primary rat microglia [5]),IC50 (in vitro [6]; cFib assay),"IC50 [7, 16]",inhibition at 10 µM ([7]; 48 h),"IC50 [7, 17]","IC50 [7, 19]",other results
"c1ccc2c(c1)OCC(C1=NCCN1)O2 (stereo not shown) [Idazoxan hydrochloride, reference compound]",Q3,> 50%,> 50%,Q3,Q3,Q3,> 20 µM,2%,0.4 µM,0.4 µM,0.4 µM,0.4 µM,70%,0%,> 20 µM,> 20 µM,2 µM,14%,2 µM,2 µM,"Fibrin Selectivity [4]: 5; Fibrin Selectivity (LOG10) [4]: 0.69; IC50 (in vitro [6]; Table 3): > 20 µM; IC50 [7, 18]: 2 µM"
"CCCCC1=NC2(CCCC2)C(=O)N1Cc1ccc(-c2ccccc2-c2nnn[nH]2)cc1 [Irbesartan, reference compound]",Q3,,> 50%,Q3,,Q3,> 20 µM,2%,> 20 µM,,> 20 µM,> 20 µM,66%,1%,,> 20 µM,> 20 µM,31%,> 20 µM,> 20 µM,"inhibition at 10 µM [1, 20]: > 50%"
"Cc1cc(NC(=O)C2=C(O)c3ccccc3S(=O)(=O)N2C)no1 [Isoxicam, reference compound]",Q3,> 50%,> 50%,Q3,Q3,Q3,> 20 µM,1%,7 µM,7 µM,7 µM,7 µM,67%,1%,> 20 µM,> 20 µM,> 20 µM,30%,> 20 µM,> 20 µM,"Fibrin Selectivity [4]: 3; Fibrin Selectivity (LOG10) [4]: 0.43; IC50 (in vitro [6]; Table 3): > 20 µM; IC50 [7, 18]: > 20 µM"
"C[C@H](N)[C@H](O)c1ccc(O)c(O)c1 [Levonordefrin, reference compound]",Q3,> 50%,> 50%,Q3,Q3,Q3,> 20 µM,1%,0.9 µM,0.9 µM,0.9 µM,0.9 µM,70%,0%,> 20 µM,> 20 µM,> 20 µM,36%,> 20 µM,> 20 µM,"Fibrin Selectivity [4]: 21; Fibrin Selectivity (LOG10) [4]: 1.33; IC50 (in vitro [6]; Table 3): > 20 µM; IC50 [7, 18]: > 20 µM"
"CC(=O)O[C@]1(C(C)=O)CC[C@H]2[C@@H]3C[C@H](C)C4=CC(=O)CC[C@]4(C)[C@H]3CC[C@@]21C [Medroxyprogesterone acetate, reference compound]",Q2,> 50%,> 50%,Q2,Q2,Q2,> 20 µM,1%,0.3 µM,0.3 µM,0.5 µM,0.3 µM,72%,1%,> 20 µM,> 20 µM,> 20 µM,56%,> 20 µM,> 20 µM,"Quadrant (FIG. 5b) ([1]; microglia HTS, Table 6): Q2; IC50 [4, 21]: 0.3 µM; Fibrin Selectivity (LOG10) ([4]; fibrin vs LPS, LOG10, Table 6): 1.84 and 1.61; Fibrin Selectivity ([4]; fibrin vs LPS, Table 6): 70 and 41; Fibrin Selectivity [4, 22]: 70 and 41; Fibrin Selectivity (LOG10) [4, 22]: 1.84 and 1.61; Fibrin Selectivity ([4]; listed as Medroxyprogesterone Acetate): 70 and 41; IC50 (primary rat microglia [5]; Table 6): > 20 µM; IC50 (in vitro [6]; Table 3): > 20 µM; IC50 (in vitro [6]; cFib assay, Table 6): > 20 µM; IC50 [7, 18]: > 20 µM; IC50 [7, 23]: > 20 µM"
"C=C1C[C@H]2[C@@H]3C=C(C)C4=CC(=O)CC[C@]4(C)[C@H]3CC[C@]2(C)[C@@]1(OC(C)=O)C(C)=O [Melengestrol acetate, reference compound]",Q2,> 50%,> 50%,Q2,Q2,Q2,> 20 µM,2%,0.07 µM,0.07 µM,0.07 µM,0.07 µM,86%,2%,> 20 µM,> 20 µM,13 µM,67%,13 µM,13 µM,"Quadrant (FIG. 5b) ([1]; microglia HTS, Table 6): Q2; Fibrin Selectivity [4]: 196; Fibrin Selectivity (LOG10) [4]: 2.29; IC50 [4, 21]: 0.07 µM; Fibrin Selectivity (LOG10) ([4]; fibrin vs LPS, LOG10, Table 6): 2.29; Fibrin Selectivity ([4]; fibrin vs LPS, Table 6): 196; IC50 (primary rat microglia [5]; Table 6): > 20 µM; IC50 (in vitro [6]; Table 3): > 20 µM; IC50 (in vitro [6]; cFib assay, Table 6): > 20 µM; IC50 [7, 18]: 13 µM; IC50 [7, 23]: 13 µM"
"CNC(C)(C)Cc1ccccc1 [Mephentermine sulfate, reference compound]",Q3,,> 50%,Q3,,Q3,> 20 µM,2%,> 20 µM,,> 20 µM,> 20 µM,60%,1%,,> 20 µM,> 20 µM,31%,> 20 µM,> 20 µM,"inhibition at 10 µM [1, 20]: > 50%"
"C=N[C@@H](C(=O)N[C@@H]1C(=O)N2[C@@H]1SC(C)(C)[C@@H]2C(=O)O)c1ccccc1 [Metampicillin sodium, reference compound]",Q3,,> 50%,Q3,,Q3,> 20 µM,1%,20 µM,,20 µM,20 µM,68%,0%,,> 20 µM,> 20 µM,35%,> 20 µM,> 20 µM,"inhibition at 10 µM [1, 20]: > 50%"
"CN1CCN2c3ncccc3Cc3ccccc3C2C1 (stereo not shown) [Mirtazapine, reference compound]",Q3,,> 50%,Q3,,Q3,> 20 µM,2%,> 20 µM,,> 20 µM,> 20 µM,57%,1%,,> 20 µM,> 20 µM,36%,> 20 µM,> 20 µM,"inhibition at 10 µM [1, 20]: > 50%"
"CCOC(=O)[N-]c1cn(N2CCOCC2)n[o+]1 [Molsidomine, reference compound]",Q2,,> 50%,Q2,,Q2,> 20 µM,2%,> 20 µM,,> 20 µM,> 20 µM,103%,5%,,> 20 µM,> 20 µM,124%,> 20 µM,> 20 µM,"inhibition at 10 µM [1, 20]: > 50%"
